Data on 4 compounds can be found in patent US7005546B2, “Acetamidobenzamide compounds for neurodegenerative disorders” (Renovis, Inc., priority 1995, dated 2006).

Molecules are shown by their SMILES.

The melting point is the temperature of the solid-liquid transition.

Data set [1] concerns MPTP-induced reduction in striatal dopamine, C57BL/6J mice. The data set is described as follows: Dopamine depletion studies (MPTP mouse model of Parkinson's disease). It counts as in vivo. The note with it: for preventing dopamine depletion following MPTP challenge (in words): Table 1 conditions, 30 mg/kg p.o. The method, then: These findings have led to the development of an assay for agents effective in treating dopamine-associated neurodegenerative disorders, such as Parkinson's disease. In this assay, test animals are given an amount of MPTP adequate to severely depress their dopamine levels. Test compounds are administered to determine if they are capable of preventing the loss of dopamine in the test animals. To the extent that dopamine levels are retained, a compound can be considered to be an effective agent for slowing or delaying the course of neurodegenerative disease, e.g., Parkinson's disease. C57BL/6J mice were pretreated with either vehicle (1% methyl cellulose) or a drug (p.o.) 30 min before MPTP. MPTP was dissolved in isotonic saline (0.9%) and given subcutaneously as a single dose of 15 mg free base/kg body weight to produce a reduction in striatal dopamine to about 0.5 nanomoles/mg protein. Groups of mice (n=8–10 per group) received either vehicle plus saline, vehicle plus MPTP or drug plus MPTP. Seventy two hours after receiving MPTP, mice were sacrificed using cervical dislocation and the striata were excised. The tissue was homogenized in 0.4 N perchloric acid, centrifuged, and the supernatant analyzed by high performance liquid chromatography/electro-chemical detection (HPLC/ED) for dopamine levels. Supernatants were stored in a −90° C. freezer between the time of collection and analysis. The drugs were combined with methyl cellulose and were homogenized in water for dosing. The dosage amount ranged from 10 to 50 mg/kg for CPI1160, CPI1189 and CPI1234, and from 50 to 100 mg/kg for CPI1020.

Data set [2] can be described thus: In vivo biotransformation of orally administered CPI1020, blood of rats. The note with it: rats given CPI1020 orally. From the text:
(§1) Commonly owned U.S. patent application Ser. No. 08/227,777, referred to above, discloses several benzamides useful in treating neurodegenerative diseases based on their protective action in the MPTP mouse model of Parkinson's disease. […] This compound is likely formed in the body by reduction of the ring nitro of CPI1020 to an amino moiety (CPI1160) followed by acetylation of the amino function.

A short description of data set [3]: In vivo biotransformation of orally administered CPI1020, blood of mice. The note with it: mice given CPI1020 orally.
Source text: as §1

Take `CC(C)(C)NC(=O)c1ccc([N+](=O)[O-])cc1` [CPI1020, N-tert-butyl-4-nitrobenzamide, reference compound]: the “protection from the neurotoxic action of MPTP (% of control)” value in data set [1] (50 mg/kg p.o., 15 mg/kg MPTP model) is reported as 65 % of control.
As to `CC(=O)Nc1cccc(C(=O)NC(C)(C)C)c1` [CPI1234, N-tert-butyl-3-acetamidobenzamide], the melting point was in the range of 194 to 195 °C. The “preventing dopamine depletion following MPTP challenge (in words)” value in data set [1] is reported as “effective”.
Take `CC(=O)Nc1ccc(C(=O)NC(C)(C)C)cc1` [CPI1189, N-tert-butyl-4-acetamidobenzamide]: the “in vivo biotransformation product of CPI1020 in blood” value in data set [2] and in data set [3] was “found in the blood” in each case. Further, the “preventing dopamine depletion following MPTP challenge (in words)” value in data set [1] is on record as “effective”.
`CC(C)(C)NC(=O)c1ccc(N)cc1` [CPI1160, N-tert-butyl-4-aminobenzamide]: the melting point lay in the range of 125 to 127 °C. For the same compound, the “preventing dopamine depletion following MPTP challenge (in words)” value in data set [1] is recorded as “effective”.
